Results reported in patent US12084420B2, “Indoline compounds for inhibiting KIF18A” (Volastra Therapeutics, Inc., priority 2021, dated 2024).

Molecular target: hKIF18A (1-374) (Homo sapiens (Human), UniProt Q8NI77)
Assay: Inhibition of KIF18A microtubule-dependent ATPase activity (ADP-Glo)
Settings: KIF18A microtubule-dependent ATPase activity, biochemical assay

hKIF18A (1-374), sequence (Q8NI77 whole entry, looked up): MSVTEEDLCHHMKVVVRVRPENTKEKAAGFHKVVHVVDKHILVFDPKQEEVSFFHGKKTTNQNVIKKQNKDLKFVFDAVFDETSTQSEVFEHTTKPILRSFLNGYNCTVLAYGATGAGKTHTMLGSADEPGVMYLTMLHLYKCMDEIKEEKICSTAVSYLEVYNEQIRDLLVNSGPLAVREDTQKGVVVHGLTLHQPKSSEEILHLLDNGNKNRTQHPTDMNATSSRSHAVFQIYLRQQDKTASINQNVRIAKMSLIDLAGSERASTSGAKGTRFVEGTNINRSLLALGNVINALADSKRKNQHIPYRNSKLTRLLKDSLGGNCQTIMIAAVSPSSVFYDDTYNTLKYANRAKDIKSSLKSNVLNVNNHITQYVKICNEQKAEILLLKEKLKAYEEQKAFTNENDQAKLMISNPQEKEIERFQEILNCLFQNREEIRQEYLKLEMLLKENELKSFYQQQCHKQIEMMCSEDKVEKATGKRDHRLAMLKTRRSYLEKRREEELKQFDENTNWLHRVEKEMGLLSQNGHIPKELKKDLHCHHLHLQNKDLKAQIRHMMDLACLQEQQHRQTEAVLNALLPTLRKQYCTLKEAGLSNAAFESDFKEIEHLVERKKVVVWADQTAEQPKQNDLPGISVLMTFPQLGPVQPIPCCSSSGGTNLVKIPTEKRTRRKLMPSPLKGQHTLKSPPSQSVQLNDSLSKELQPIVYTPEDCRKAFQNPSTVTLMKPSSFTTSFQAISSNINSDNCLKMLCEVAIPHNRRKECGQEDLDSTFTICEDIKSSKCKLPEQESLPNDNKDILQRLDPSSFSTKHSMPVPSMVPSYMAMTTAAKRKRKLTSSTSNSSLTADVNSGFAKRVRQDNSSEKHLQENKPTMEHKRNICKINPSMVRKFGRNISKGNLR
hKIF18A (1-374), sequence (Q2XVP4 whole entry partner, looked up): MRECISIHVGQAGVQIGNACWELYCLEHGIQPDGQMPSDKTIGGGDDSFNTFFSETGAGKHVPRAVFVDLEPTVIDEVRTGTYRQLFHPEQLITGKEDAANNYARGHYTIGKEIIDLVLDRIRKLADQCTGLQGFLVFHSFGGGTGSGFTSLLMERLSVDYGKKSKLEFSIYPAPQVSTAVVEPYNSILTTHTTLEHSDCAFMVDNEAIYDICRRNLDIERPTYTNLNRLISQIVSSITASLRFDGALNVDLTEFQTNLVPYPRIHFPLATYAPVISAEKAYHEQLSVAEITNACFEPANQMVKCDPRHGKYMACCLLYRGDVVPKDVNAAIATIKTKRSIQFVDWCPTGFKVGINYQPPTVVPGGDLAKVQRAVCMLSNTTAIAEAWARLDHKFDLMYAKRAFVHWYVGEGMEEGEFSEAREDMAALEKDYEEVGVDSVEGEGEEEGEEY
hKIF18A (1-374), sequence (P02554 whole entry partner, looked up): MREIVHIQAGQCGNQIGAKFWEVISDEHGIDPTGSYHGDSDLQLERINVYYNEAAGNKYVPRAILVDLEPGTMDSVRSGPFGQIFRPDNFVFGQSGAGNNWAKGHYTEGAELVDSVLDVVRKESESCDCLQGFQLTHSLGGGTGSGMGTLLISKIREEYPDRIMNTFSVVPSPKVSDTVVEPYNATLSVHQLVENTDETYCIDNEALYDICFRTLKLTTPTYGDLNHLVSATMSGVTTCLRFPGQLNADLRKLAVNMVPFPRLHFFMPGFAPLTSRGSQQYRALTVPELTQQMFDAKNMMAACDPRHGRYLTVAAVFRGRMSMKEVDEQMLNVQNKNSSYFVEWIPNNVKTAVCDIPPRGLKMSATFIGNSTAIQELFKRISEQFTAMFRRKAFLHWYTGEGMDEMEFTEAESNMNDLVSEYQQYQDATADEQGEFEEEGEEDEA

Compound | IC50 [nM]
CC(C)N(C)S(=O)(=O)c1cccc(C(=O)N2CC3(CCCCC3)c3cc(NS(C)(=O)=O)ccc32)c1 [Compound 55, N-isopropyl-N-methyl-3-(5′-(methylsulfonamido)spiro[cyclohexane-1,3′-indoline]-1′-carbonyl)benzenesulfonamide] | 140
Cc1oc(C(=O)N2CC3(CCCCC3)c3cc(NS(C)(=O)=O)ccc32)cc1S(=O)(=O)NC(C)(C)C [Compound 57, N-(tert-butyl)-2-methyl-5-(5′-(methylsulfonamido)spiro[cyclohexane-1,3′-indoline]-1′-carbonyl)furan-3-sulfonamide] | 1100
CC(C)(C)NS(=O)(=O)c1ccc(C(=O)N2CC3(CCCCC3)c3cc(NS(C)(=O)=O)ccc32)s1 [Compound 60, N-(tert-butyl)-5-(5′-(methylsulfonamido)spiro[cyclohexane-1,3′-indoline]-1′-carbonyl)thiophene-2-sulfonamide] | 1200
CN=S(=O)(c1cccc(C(=O)N2CC3(CCCCC3)c3cc(NS(C)(=O)=O)ccc32)c1)C1CCCC1 (stereo not shown) [Compound 67, N-(1′-(3-(N-methylcyclopentanesulfonimidoyl)benzoyl)spiro[cyclohexane-1,3′-indolin]-5′-yl)methanesulfonamide] | 460
CC1CCN(S(=O)(=O)c2cccc(C(=O)N3CC4(CCCCC4)c4cc(NS(C)(=O)=O)ccc43)c2)C1 (stereo not shown) [Compound 71, N-(1′-(3-((3-methylpyrrolidin-1-yl)sulfonyl)benzoyl)spiro[cyclohexane-1,3′-indolin]-5′-yl)methanesulfonamide] | 86
CS(=O)(=O)Nc1ccc2c(c1)C1(CCCCC1)CN2C(=O)c1cccc(S(=O)(=O)N2CCC(F)C2)c1 (stereo not shown) [Compound 83, N-(1′-(3-((3-fluoropyrrolidin-1-yl)sulfonyl)benzoyl)spiro[cyclohexane-1,3′-indoline]-5′-yl)methanesulfonamide] | 130
CC(C)(C)NS(=O)(=O)c1cc(F)cc(C(=O)N2CC3(CCCCC3)c3cc(NS(C)(=O)=O)ccc32)c1 [Compound 95, N-(tert-butyl)-3-fluoro-5-(5′-(methylsulfonamido)spiro[cyclohexane-1,3′-indoline]-1′-carbonyl)benzenesulfonamide] | 170
CC(C)(C)NS(=O)(=O)c1cc(C(=O)N2CC3(CCCCC3)c3cc(NS(C)(=O)=O)ccc32)ccc1F [Compound 96, N-(tert-butyl)-2-fluoro-5-(5′-(methylsulfonamido)spiro[cyclohexane-1,3′-indoline]-1′-carbonyl)benzenesulfonamide] | 100
CC(C)(C)NS(=O)(=O)c1ccc(F)c(C(=O)N2CC3(CCCCC3)c3cc(NS(C)(=O)=O)ccc32)c1 [Compound 97, N-(tert-butyl)-4-fluoro-3-(5′-(methylsulfonamido)spiro[cyclohexane-1,3′-indoline]-1′-carbonyl)benzenesulfonamide] | 850
CC1CN(S(=O)(=O)c2cccc(C(=O)N3CC4(CCCCC4)c4cc(NS(C)(=O)=O)ccc43)c2)CCO1 (stereo not shown) [Compound 107, N-(1′-(3-((2-methylmorpholino)sulfonyl)benzoyl)spiro[cyclohexane-1,3′-indolin]-5′-yl)methanesulfonamide] | 470
CCOC(=O)Nc1ccc2c(c1)C1(CCCCC1)CN2C(=O)c1cccc(S(=O)(=O)N2CCCCC2)c1 [Compound 141, ethyl (1′-(3-(piperidin-1-ylsulfonyl)benzoyl)spiro[cyclohexane-1,3′-indolin]-5′-yl)carbamate] | 1100
Cn1cc(S(=O)(=O)NC(C)(C)C)cc1C(=O)N1CC2(CCCCC2)c2cc(NS(C)(=O)=O)ccc21 [Compound 145, N-(tert-butyl)-1-methyl-5-(5′-(methylsulfonamido)spiro[cyclohexane-1,3′-indoline]-1′-carbonyl)-1H-pyrrole-3-sulfonamide] | 290
CS(=O)(=O)Nc1ccc2c(c1)C1(CCCCC1)CN2C(=O)c1cccc(SC2CCCC2)c1 [Compound 146, N-(1′-(3-(cyclopentylthio)benzoyl)spiro[cyclohexane-1,3′-indolin]-5′-yl)methanesulfonamide] | 190
CC(C)(C)NS(=O)(=O)c1ccc(C(=O)N2CC3(CCCCC3)c3cc(NS(C)(=O)=O)ccc32)o1 [Compound 149, N-(tert-butyl)-5-(5′-(methylsulfonamido)spiro[cyclohexane-1,3′-indoline]-1′-carbonyl)furan-2-sulfonamide] | 78
CC(C)(C)NS(=O)(=O)c1cccc(C(=O)N2C[C@]3(CC[C@@H](C(F)F)CC3)c3cc(NS(C)(=O)=O)ccc32)c1 [Compound 162b] | 37
CS(=O)(=O)Nc1ccc2c(c1)C1(CCC3(CC3)CC1)CN2C(=O)c1cccc(C(=O)C2CCCC2)c1 [Compound 164, N-(1″-(3-(cyclopentanecarbonyl)benzoyl)dispiro[cyclopropane-1,1′-cyclohexane-4′,3″- indolin]-5″-yl)methanesulfonamide] | 120

Compound | IC50 [nM]
CS(=O)(=O)Nc1ccc2c(c1)C1(CCC3(CC3)CC1)CN2C(=O)c1cccc(C(O)C2CCCC2)c1 (stereo not shown) [Compound 165, N-(1″-(3-(cyclopentyl(hydroxy)methyl)benzoyl)dispiro[cyclopropane-1,1′-cyclohexane-4′,3″indolin]-5″- yl)methanesulfonamide] | 15
O=C(c1cccc(S(=O)(=O)N2CCCCC2)c1)N1CC2(CCCCC2)c2cc(O)ccc21 [Compound 166, (5′-hydroxyspiro[cyclohexane-1,3′-indolin]-1′-yl)(3-(piperidin-1-ylsulfonyl)phenyl)methanone] | 1100
CCC(C)NS(=O)(=O)c1cccc(C(=O)N2CC3(CCC4(CC4)CC3)c3cc(NS(C)(=O)=O)ccc32)c1 (stereo not shown) [Compound 170, N-(sec-butyl)-3-(5″- (methylsulfonamido)dispiro[cyclopropane-1,1′-cyclohexane-4′,3″-indoline]-1″-carbonyl)benzenesulfonamide] | 15
CS(=O)(=O)Nc1ccc2c(c1)C1(CCC3(CC3)CC1)CN2C(=O)c1cccc(S(=O)(=O)NC2COC2)c1 [Compound 174, 3-(5″- (methylsulfonamido)dispiro[cyclopropane-1,1′-cyclohexane-4′,3″-indoline]-1″-carbonyl)-N-(oxetan-3-yl)benzenesulfonamide] | 56
CS(=O)(=O)Nc1ccc2c(c1)C1(CCC3(CC3)CC1)CN2C(=O)c1cccc(S(=O)(=O)NC2CCCC2)c1 [Compound 176, N-cyclopentyl-3-(5″- (methylsulfonamido)dispiro[cyclopropane-1,1″-cyclohexane-4′,3″-indoline]-1″-carbonyl)benzenesulfonamide] | 5.6
CC1(NS(=O)(=O)c2cccc(C(=O)N3CC4(CCC5(CC5)CC4)c4cc(NS(C)(=O)=O)ccc43)c2)CCOC1 (stereo not shown) [Compound 178, 3-(5″- (methylsulfonamido)dispiro[cyclopropane-1,1′-cyclohexane-4′,3″-indoline]-1″-carbonyl)-N-(3-methyltetrahydrofuran-3-yl)benzenesulfonamide] | 17
CS(=O)(=O)Nc1ccc2c(c1)C1(CCC3(CC3)CC1)CN2C(=O)c1cccc(S(=O)(=O)NC2CCCCC2)c1 [Compound 180, N-cyclohexyl-3-(5″- (methylsulfonamido)dispiro[cyclopropane-1,1′-cyclohexane-4′,3″-indoline]-1″-carbonyl)benzenesulfonamide] | 11
CC(NS(=O)(=O)c1cccc(C(=O)N2CC3(CCC4(CC4)CC3)c3cc(NS(C)(=O)=O)ccc32)c1)C1CCC1 (stereo not shown) [Compound 184, N-(1-cyclobutylethyl)-3-(5″- (methylsulfonamido)dispiro[cyclopropane-1,1′-cyclohexane-4′,3″-indoline]-1″-carbonyl)benzenesulfonamide] | 33
CC(NS(=O)(=O)c1cccc(C(=O)N2CC3(CCC4(CC4)CC3)c3cc(NS(C)(=O)=O)ccc32)c1)C1CC1 (stereo not shown) [Compound 186, N-(1-cyclopropylethyl)-3-(5″- (methylsulfonamido)dispiro[cyclopropane-1,1′-cyclohexane-4′,3″-indoline]-1″-carbonyl)benzenesulfonamide] | 12
CC1(C)OCC1NS(=O)(=O)c1cccc(C(=O)N2CC3(CCC4(CC4)CC3)c3cc(NS(C)(=O)=O)ccc32)c1 (stereo not shown) [Compound 188, N-(2,2-dimethyloxetan-3-yl)-3-(5″- (methylsulfonamido)dispiro[cyclopropane-1,1′-cyclohexane-4′,3″-indoline]-1″-carbonyl)benzenesulfonamide] | 75
C=C1CC(NS(=O)(=O)c2cccc(C(=O)N3CC4(CCC5(CC5)CC4)c4cc(NS(C)(=O)=O)ccc43)c2)C1 [Compound 190, N-(3-methylenecyclobutyl)-3-(5″- (methylsulfonamido)dispiro[cyclopropane-1,1′-cyclohexane-4′,3″-indoline]-1″-carbonyl)benzenesulfonamide] | 4.8
CS(=O)(=O)Nc1ccc2c(c1)C1(CCC3(CC3)CC1)CN2C(=O)c1cccc(S(=O)(=O)NC2C=CCCC2)c1 (stereo not shown) [Compound 196, N-(cyclohex-2-en-1-yl)-3-(5″- (methylsulfonamido)dispiro[cyclopropane-1,1′-cyclohexane-4′,3″-indoline]-1″-carbonyl)benzenesulfonamide] | 10
CCC(CC)NS(=O)(=O)c1cccc(C(=O)N2CC3(CCC4(CC4)CC3)c3cc(NS(C)(=O)=O)ccc32)c1 [Compound 198, 3-(5″- (methylsulfonamido)dispiro[cyclopropane-1,1′-cyclohexane-4′,3″-indoline]-1″-carbonyl)-N-(pentan-3-yl)benzenesulfonamide] | 26
COCC(C)NS(=O)(=O)c1cccc(C(=O)N2CC3(CCC4(CC4)CC3)c3cc(NS(C)(=O)=O)ccc32)c1 (stereo not shown) [Compound 200, N-(1-methoxypropan-2-yl)-3-(5″- (methylsulfonamido)dispiro[cyclopropane-1,1′-cyclohexane-4′,3″-indoline]-1″-carbonyl)benzenesulfonamide] | 72
CS(=O)(=O)Nc1ccc2c(c1)C1(CCC3(CC3)CC1)CN2C(=O)c1cccc(S(=O)(=O)NC2(CO)CC2)c1 [Compound 202, N-(1-(hydroxymethyl)cyclopropyl)-3-(5″- (methylsulfonamido)dispiro[cyclopropane-1,1′-cyclohexane-4′,3″-indoline]-1″-carbonyl)benzenesulfonamide] | 53
